Reference: patent EP0151964A2, “New derivatives of alpha-amino-gamma-butyrolactone, method for the preparation thereof and pharmaceutical compositions containing them” (priority 1984, dated 1985)

Columns and labels:
[1] = Enhancement of the hypnotic effect of sodium pentobarbital (loss of righting reflex); format: in vivo; conditions: mouse
Experimental: 40 mg, kgof sodium pentobarbital was injected intraperitoneal ly into mice and note was taken of animals losing the righting re= flex and for how long. Other mice received a preliminary treat= ment with PTT-01 at a dosage of 25 and 50 mg/kg, intraperitoneally and thereafter sodium pentobarbital was given.

[2] = Antagonism towards d-amphetamine: amphetamine-induced hypermobility; format: in vivo, mice; parameters: reference not given here
Experimental: (§1) This particular feature of the compound could be deduced from the influence the compound exerted on: (a) d-amphetamine toxicity to mice kept in group, and (b) response time of une avoidance re= flex.
Six groups of 4 mice each were treated with 5 mg/kg of d-am= phetamine sulfate by intraperitoneal administration. Six groups of 4 animals each received the same dose of d-amphetamine sulfate plus 25 mg/kg of PTT-01 intraperitoneally, 15 minutes after d-am= phetamine sulfate; six groups of 4 animals each received saline solution and were used as controls. Spontaneous mobility was ob= served in every animal according to the procedure described herein before. The number of times each animal crossed the light beam throughout the 10 minutes test was noted. As appears from Table 4, the treatment with PTT-01 aid not prevent d-amphetamine from stimulating spontaneous mobility.

[3] = Sedation of laboratory animals; format: in vivo; conditions: dose of about 50 mg/kg
Experimental: The compound was administered to laboratory animals at a dose of about 50 mg/kg. The animals were sedated.
A good yield of α-n-pentylcarbonyl-amino-γ-butyrolactone is ob= tained. The compound was administered to laboratory animals at a dose of about 50 mg/kg. The animals were sedated.

Choleresis = format: in vivo; conditions: single 50 mg/kg oral dose
Experimental: (§2) The effect of a single 50 mg/kg oral dose of PTT-01 was deter mined on (a) diuresis in water-loaded rats, (b) choleresis, (c) ex cretion rate of intravenously injected bromosulphonphthalein in bi le, (d) arterial blood pressure.

[4] = Antagonism towards electroshock (maximal electroshock, MES); format: in vivo; conditions: mouse; for Number of animals with Clonic convulsions / Number of animals with Tonic convulsions: treated animals in parentheses
Experimental: Electroshock was produced in mice by applying ear electrodes. Stimulation parameters which could induce the maximal electroshok (MES) were adopted. This was obtained by applying rectangular input shocks for 0.6 seconds. Each input lasted […] and the input frequency was 25/sec. Phenobarbital sodium was used as control substance. […]

[5] = Acute toxicity in animals; format: in vivo, rats ( Wistar-Morini Strain); conditions: for LD50: aqueous 1% suspension of tragacanth gum
Experimental: PTT-01 was administered to adult rats ( Wistar-Morini Strain) of both sexes after fasting overnight. It was administered in an aqueous 1% suspension of tragacanth gum orally by gastric probe or intraperitoneally.

[6] = Antagonism towards strychnine: protection from death caused by hypodermic injection; format: in vivo; conditions: mouse, single oral 50 mg/kg dose, 1.2 mg/kg strichnine sulfate, groups of six
Experimental: (§3) This type of antagonism was evaluated in the mouse as follows: (1) protection from death caused by a hypodermic injection of strychnine; (2) evaluation of the LD50 of strychnine both in mice treated and untreated with PTT-01 and (3) influence on the time re quired to cause animals to die by slow intravenous perfusion of strychnine.
Groups of six mice were used. Results are given in Ta= ble 5.

[7] = Antagonism towards strychnine: time to death under slow intravenous infusion; format: in vivo; conditions: mice; for mean infusion time to cause death: infusion rate 0.25 ml/min
Experimental: as §3
(3) continuous intravenous infusion at constant rate (0.4 ml/min) of a strychnine sulfate solution (26.66 mg/l) was carried out by injection in a tail vein in mice until they died. One group of aninals received 50 mg/kg of PTT-01 as preliminary treatment 15 mi nutes before the beginning of the infusion. The mean infusion ti me to cause six controls to die was 134 ± 3.2 seconds (mean + SE). The mean infusion time required to obtain the same effect in animals pretreated with PTT-01 was 210 ± 6.1 seconds.
In another experiment the infusion rate of strychnine was low ered to 0.25 ml/min. Under this conditions, the mean infusion ti me was 246 ± 3.1 seconds in the case of controls (six animals) and 338 ± 24.3 seoondss in treated animals.
When the above mentioned infusion rate was maintained, while redu= cine the amount of PTT-01 to 25 mg/kg, the mean infusion time was 260 + 13.4 seconds in controls and 360 + 21.2 seconds in the treat ed animals.

Arterial blood pressure = format: in vivo; conditions: single 50 mg/kg oral dose
Experimental: as §2

[8] = Mortality from d-amphetamine in mice kept in group; format: in vivo; conditions: eight grouped mice, same amount (25 mg/kg) i.p. 10 minutes before 10 mg/kg d-amphetamine sulfate i.p.; all eight controls died
Experimental: as §1
However, PTT-01 reduced mortality from d-amphetamine. The same amount of PTT-01 was injected intraperitoneally. Then, 10 minutes later, an intraperitoneal injection of 10 mg/kg of d-amphe tamine sulfate was administered. Eight animals were used in this test and kept in a 25 x 20 x 14 om cage in an air-conditioned room (20°C, 6C,- humidity). […]

[9] = Subacute toxicity in animals; format: in vivo; conditions: 8 rats, 50 mg/kg daily for 6 consecutive days
Experimental: Accor= dingly, 8 rats were given 50 mg/kg daily for 6 consecutive days.

[10] = Electrode recording in the unrestrained cat; format: in vivo; conditions: permanent electrodes, 50 or 100 mg/kg
[11] = Excretion rate of intravenously injected bromosulphonphthalein in bile; format: in vivo; conditions: single 50 mg/kg oral dose
Experimental: as §2

[12] = Influence on the electromyogram, rabbit with cortical electrodes; format: in vivo; conditions: electrodes implanted in cerebral cortex, 50 mg/kg intraperitoneal, similar to 30 mg/kg intravenous phenobarbital sodium
Experimental: The effect was similar to the effect caused by 30 mg/kg of intravenous phenobarbital sodium.

Rotating bar test = format: in vivo; conditions: trained mice, group of five
Experimental: Mice were trained to remain on a rotating bar for at least 3 minutes. A group of five of the trained mice were given an intra peritoneal injection of 25 mg/kg of PTT-01 in a 1% suspension of tragacanth gum. Another group of five mice were given an intra= peritoneal injection of 50 mg/kg of PTT-01 in a 1% suspension of tragacanth gum. All control animals stayed on the bar for 3 mi= nutes.

[13] = Sleep in cats conditioned to sleep for 8 hours; format: in vivo; conditions: 25 and 35 mg/kg
[14] = Diuresis in water-loaded rats; format: in vivo
[15] = Avoidance reflex (response time in two-chamber conditioning cage); format: in vivo; conditions: four conditioned mice, controls 53.3±4.5 sec
Source text: as §1
A conditioning cage consisting of two chambers was used, with free access between the chambers. The floor of one compartment was electrified to make it possible to deliver a mild shook. Eice were conditioned by first giving a warning signal and then,af ter a short period of time the shock was applied. Mice learned to leave the electrified compartment after the warning bell soun= ded were then judged to be conditioned. The average period of ti me, in this experiment, for controls (4) within which they leave the compartment was 53.3±4.5 sec. Four conditioned mice were given PTT-01 intraperitoneally(25 mg/kg); time within which they left the compartment was 60.6 + 3.9 sec. Four conditioned mice treat= ed with 50 mg/kg of PTT-C1 left the compartment only after 77.5 ± 2.7 sec.

[16] = Spontaneous mobility (interruptions of a light beam in 10 minutes); format: in vivo; conditions: mice, controls fell to 71.4%
Experimental: Several groups of 4 mice each were placed in an apparatus de signed to provide a measure of spontaneous mobility by counting the number of interruptions of a light beam for a period of 10 mi= nutes. After preliminary measurement of mobility, animals were injected with PTT-01 (25 and 50 mg/kg) intraperitoneally. Con= trols received saline solution. Then minutes thereafter the mea= surement of mobility was repeated. Five groups of mice were used as controls and 6 other groups were treated with varying doses of PTT-01.

[17] = 25 mg/kg i.p. 10 minutes before electroshock
[18] = I 25 mg/kg + II 40 mg/kg intraperitoneally
[19] = I 50 mg/kg + II 40 mg/kg intraperitoneally
[20] = 40 mg/kg i.p. 10 minutes before electroshock

CCCC(C)C1(CC)C(=O)NC(=O)NC1=O (stereo not shown) [II, sodium pentobarbital, reference compound]
Animals under hypnosis/ treated ([1]; II 40 mg/kg intraperitoneally alone): 3/4 | Duration of hypnosis in minutes (m± SE) ([1]; II 40 mg/kg intraperitoneally alone, zero assigned to animals not losing the righting reflex): 3.25 ± 3.4 min

C[C@H](N)Cc1ccccc1 [d-amphetamine, reference compound]
Mean number of crossings (± SE) in 10 minutes ([2]; mouse, in vivo): 657 ± 59

CC(C)CC(=O)NC1CCOC1=O (stereo not drawn) [Example 2, α-isobutylcarbonyl-amino-γ-butyrolactone]
sedation [3]: sedated

α-n-butylcarbonyl-amino-γ-butyrolactone [PTT-01]
choleresis (Choleresis): No treatment caused any signi= ficant change | Number of animals Dead [4, 17]: 0/8 | Number of animals with Clonic convulsions [4, 17]: 8 (8) | Number of animals with Tonic convulsions [4, 17]: 0 (8) | effect in rats ([5]; 50 mg/kg by oral route): did not cause any particular effect | effect in rats ([5]; 100 mg/kg by oral route): mild sedative effect | duration of the sedative and hypnotic effects ([5]; rats, acute toxicity doses, animal returned to normal): not long lasting | sedative effect ([5]; rats, from the lowest intraperitoneal dose): the sedative effect was obtained | loss of the righting reflex ([5]; rats, highest oral dose): not cause the loss of the righting reflex | sedative effect ([5]; rats, highest oral dose): produced a sedative effect | loss of the righting reflex ([5]; rats, intraperitoneal, 1 g/kg): the loss of the righting reflex occurred | LD50 ([5]; rats, intraperitoneally): more than 2 g/kg | LD50 ([5]; rats, orally by gastric probe): more than 2 g/kg | protection against the lethal effect of strichnine sulfate [6]: protected all the animals | mean infusion time to cause death ([7]; 25 mg/kg, controls 260 + 13.4): 360 + 21.2 seconds | mean infusion time to cause death (mean + SE) ([7]; 50 mg/kg 15 minutes before infusion, strychnine sulfate 26.66 mg/l at 0.4 ml/min, controls 134 ± 3.2): 210 ± 6.1 s | mean infusion time to cause death ([7]; 50 mg/kg, controls 246 ± 3.1): 338 ± 24.3 s | arterial blood pressure (Arterial blood pressure): No treatment caused any signi= ficant change | Mean number of crossings (± SE) in 10 minutes ([2]; mice, d-amphetamine 5 mg/kg i.p. + 25 mg/kg i.p. given 15 minutes after d-amphetamine): 836 ± 100 | animals died [8]: 5 of the eight | sedative effect or other abnormal symptoms [9]: No sedative effect or other abnormal symptoms were observed | sedation and electromyographic alterations [10]: sedation oc= curred without electromyographic alterations | Animals under hypnosis/ treated [1, 18]: 4/4 | Duration of hypnosis in minutes (m± SE) [1, 18]: 52.5 ± 13 min | Animals under hypnosis/ treated [1, 19]: 4/4 | Duration of hypnosis in minutes (m± SE) [1, 19]: 75.2 ± 21.6 min | excretion rate of intravenously injected bromosulphonphthalein in bile [11]: No treatment caused any signi= ficant change | electromyographic tracing [12]: tracing to become flat | mice staying on the bar for 3 minutes (Rotating bar test; 25 mg/kg intraperitoneal): two out of the five | mice staying on the bar for 3 minutes (Rotating bar test; 50 mg/kg intraperitoneal): none | number of cases of REM sleep [13]: reduced the number of cases of REM sleep | total sleeping time [13]: did not modify the total sleeping time | diuresis in water-loaded rats ([14]; single 50 mg/kg oral dose): No treatment caused any signi= ficant change | rate of urine excretion ([14]; water-loaded rats, daily oral dose of 50 mg/kg for five subsequent days): slowed | time within which they left the compartment ([15]; 25 mg/kg intraperitoneally): 60.6 + 3.9 sec | time within which they left the compartment ([15]; 50 mg/kg): 77.5 ± 2.7 s | mobility, % of the base-line values ([16]; 25 mg/kg intraperitoneally): 31.9% | mobility, % of the base-line values ([16]; 50 mg/kg intraperitoneally): 23.1%

CCCCCC(=O)NC1CCOC1=O (stereo not drawn) [Example 3, α-n-pentylcarbonyl-amino-γ-butyrolactone]
sedation [3]: sedated

CCC1(c2ccccc2)C(=O)NC(=O)NC1=O [Phenobarbital Na, Phenobarbital sodium, reference compound]
Number of animals Dead [4, 20]: 0/8 | Number of animals with Clonic convulsions [4, 20]: 8 (8) | Number of animals with Tonic convulsions [4, 20]: 0 (8)
